{"source": "patent US6747050B1", "about": "“Isoxazoline derivative and a process for the preparation thereof” (LG Chem Investment Ltd., priority 1999, dated 2004)", "key": {"[1]": {"tested_on": "PARP cleavage", "test": "Western blotting of PARP cleavage in liver lysate of Con A-treated mice", "assay_type": "in vivo", "conditions": "various doses", "experimental": "In this experiment, the cleavage of PARP was identified by the appearance on Western blot analysis of an 85 kda-cleavage product in hepatic cell lysate obtained from mice treated with Con A and various doses of the compound of formula (I).\nFreshly harvested livers treated with Con A or PBS together with various doses of compound 33 were rinsed in cold PBS and homogenized into three volumes per weight of cold PBS containing 1% Nonidet P-40, 0.1% SDS, 1 mM PMSF, and protease inhibitor cocktail tablet Complete (Boehnger Mannheim, used according to manufacturer's instruction). The homogenates were incubated on ice for 30 min. Samples were then centrifuged at 16,000×g for 30 min at 4° C. Supernatants were transferred to fresh tubes and centrifuged for additional 30 min. Harvested lysates were precleared by incubating with protein G-sepharose (Pharmacia, Uppsala, Sweden) at 4° C. for overnight, gently shaking. Supernatants were harvested by centrifugation at 1000×g for 30 sec. at 4° C. and separated on 7% SDS-polyacrylamide gel and transferred to nitrocellulose membrane. Blots were blocked for 1 hr at room temperature in PBS containing 5% skimmed milk and 0.1% Tween 20 under gentle shaking. Membranes were then incubated overnight with 1:1000 diluted monoclonal anti-PARP antibody (Pharmingen) under gentle shaking. […]"}, "[2]": {"tested_on": "Recombinant human caspase-1, -2, -3, -4, -6, -7, -8 and -9", "test": "Inhibition of caspase activity in cell free system (chromogenic pNA substrates)", "assay_type": "biochemical", "conditions": "100 μM compound", "experimental": "The pharmacological efficacy of the compound according to the present invention was evaluated by the following experiments. Con A was purchased from Boehringer Mannheim GmbH (Mannheim, Germany). Peptide-based substrates of caspases (Ac-YVAD-pNA for caspase-1, Ac-VDVAD for caspase-2, Ac-DEVD-pNA for caspase-3, 7, 8, and 9, Ac-LEVD-pNA for caspase-4, and Ac-VEID-pNA for caspase-6) and peptide-based caspase inhibitors (Ac-DEVD-fmk, z-VAD-CHO) were purchased from Alexis Co. (San Diego, Calif.). Ac-DEVD-CHO and z-DEVD-cmk were purchased from Bachem; Anti Fas antibody was purchased from Oncor (Cat#A8050); WI38 cell was available from ATCC; IFN-gamma was purchased from LG Pharmaceuticals (Korea). All cell culture-media and supplements were purchased from Gibco BRL (Tsuen Wan, Hong Kong) unless mentioned otherwise. […]\nCaspase activity was tested by mewing proteolytic cleavage of peptide-based chromogenic substrate by each enzyme. […] Aliquots of the enzyme (2 μl containing catalytic activity of 0.2 absorbance at 405 nm/h) were mixed with 150 μl of 200 μM chromogenic substrate in the presence or absence of 100 μM compound 33 m, 96-well plates. […] The absorbance of enzymatically released pNA was measured discontinuously at 405 nm in a microplate reader for 1 hr. The caspase activity was calculated from initial velocity (meant±SE)(n=4, in which n represents the number of repeated experiment)."}, "[3]": {"tested_on": "Con A-induced hepatitis in Balb/c mice", "test": "Con A-induced acute hepatitis mice: plasma aminotransferase activity", "assay_type": "in vivo", "experimental": "Female 6-week-old Balb/c mice (Charles River Laboratory, Osaka, Japan) were kept at 22° C. and 55% relative humidity in a 12-h day/night rhythm with free access to food and water. Con A was dissolved in pyrogen-free saline to a concentration of 2.5 mg/ml and was injected via the tail vein in an amount of 20 mg/kg based on Con A. The animals were i.p. injected twice with compound 33 dissolved into a vehicle which consists of olive oil and 10% DMSO, or a vehicle alone, at 1 hr before and 4 h after Con A injection Animals were sacrificed by cervical dislocation at 24 hrs after Con A injection to obtain liver and blood samples.\nBlood samples obtained at step 1 were collected at 24 h after Con A injection Plasma AST and ALT activity were measured using Autokit (Youngdong Pharmaceutical Co., Seoul, Korea) following manufacturer's instruction."}, "[4]": {"tested_on": "hepatocytes in ConA-treated mouse liver", "test": "Con A-treated mouse liver: histologic examination and TUNEL detection of apoptosis", "assay_type": "in vivo, mice", "conditions": "4, 20, 100 mg/kg", "experimental": "The present inventors estimated the prevalence of apoptotic cells in the mouse liver to certify the apoptosis-blocking effect of the compound of the present invention specifically in hepatocytes. Mice were treated ConA in the presence or absence of various dosages of compound 33 [A and G: ConA and vehicle treatment, B and H: ConA and compound 33 4 mg/kg treatment, C and I: ConA and compound 33 20 mg/kg treatment, D and J: ConA and compound 33 100 mg/kg treatment] to prepare frozen liver sections. Also, mice were treated with PBS and vehicle (E and K), or PBS and compound 33 100 mg/kg (F and L) to prepare frozen liver sections. Freshly excised mouse liver was immediately immersed in 25% sucrose solution at 4° C. for overnight, then frozen in liquid nitrogen, and cryosectioned into 4 μm.\nFor histological examination, liver sections were fixed in 1% buffered paraformaldehyde and stained with hematoxilin & eosin (FIGS. 6A to F). To detect apoptotic cells in liver, frozen liver was stained using an ApopTag in situ apoptosis peroxidase detection kit (terminal deoxynucleotidyl transferase-mediated dUTP nick end labeling: TUNEL assay) (Oncor, Gaithersburg, Md.) and DAKO liquid DAB (DAKO, Carpinteria, Calif.)(FIGS. 6G to L). Staining was conducted according to manufacturer's instruction After completion of staining, the samples were observed under an optical microscope. […]"}, "[5]": {"tested_on": "caspase-3-like activity (Ac-DEVD-pNA)", "test": "Caspase-3-like activity in TNFα/ActD-treated primary rat hepatocytes", "assay_type": "cell-based", "conditions": "100 μM, 8 hrs", "experimental": "(§1) Primary rat hepatocytes were isolated and purified from male Sprague-Dawley rats using a collagenase digestion method. The hepatocytes were purified over 30% Percoll gradient by centrifugation at 1,000×g for 10 min. at 4° C. […] The cells were plated on collagen-coated tissue culture plates at a density of 2×10^5 cells/well in 12-well plates for cell viability analysis or 5×10^6 cells/100 mm dish for enzyme assays. After 18 hrs preculture, the cells were treated with 2,000 units/ml TNFα and 0.2 μg/ml Actinomycin (ActD). Caspase activity and cell viability was determined by colorimetry using a caspase substrate Ac-DEVD-pNA and crystal violet staining method at 8 hrs and 12 hrs, respectively."}, "[6]": {"tested_on": "primary rat hepatocytes", "test": "Cell viability of TNFα/ActD-treated primary rat hepatocytes (crystal violet)", "assay_type": "cell-based", "conditions": "added at different time points", "experimental": "as §1"}, "[7]": {"tested_on": "IL-1β production in human peripheral lymphocytes", "test": "IL-1β production in LPS-stimulated human peripheral lymphocytes (intracellular Caspase-1 inhibition)", "assay_type": "cell-based", "conditions": "Lymphocyte, 10 ng/ml LPS, 12 hours, read-out: CIC50 (IL-1β production)", "experimental": "Inhibitory activity for Caspase-1 was determined by screening the effects of the compounds on the IL-1β production in the periphery lymphocytes stimulated with LPS. Briefly, 500,000 cells/ml of human peripheral lymphocytes were treated with the test compounds at various concentrations for 2 hours and then with 10 ng/ml of LPS. After incubating the cells for 12 hours, the supernatant samples from the media were analysed by immunoantibody analysis (Amersham) in which 100 ng/well of human IL-1β antibody is coated (Range: CIC50: 0.1˜10 μM)."}}, "data": [{"compound": "CC(C)[C@H](NC(=O)c1cccc2ccccc12)C1=NOC(Cc2ccccc2)(C(=O)N[C@@H](CC(=O)O)C(=O)COC(=O)c2c(Cl)cccc2Cl)C1", "note": "(stereo partly drawn) [Compound 33, (3S)-3-{3-[2-Methyl-(1S)-1-(1-naphthalenecarbonylamino)-propyl]-5-phenylmethyl-4,5-dihydro-isoxazole-5-carbonylamino}-4-keto-5-(2,6-dichlorobenzoyloxy)-pentanoic Acid]", "values": [{"measurement": "PARP cleavage (85 kDa-cleavage product) caused by Con A (FIG. 7)", "setting": "[1]", "value": "gradually reduced"}, {"measurement": "inhibition of recombinant human caspase activity (FIG. 1)", "setting": "[2]", "value": "almost completely inhibited all tested caspase activity, only except for caspase 2"}, {"measurement": "AST and ALT difference to Con A/vehicle group", "setting": "[3]; 4 mg/kg, second experiment (AST: p=0.2972, ALT: p=0.1378)", "value": "did not reached at statistically significant level"}, {"measurement": "AST and ALT activities compared with ConA/vehicle group", "setting": "[3]; 20 mg/kg, second experiment (AST: p=0.0174, ALT: p=0.0011)", "value": "definitely reduced"}, {"measurement": "AST activity by the compound itself (no Con A)", "setting": "[3]; first experiment, not statistically significant (p=0.1033)", "value": "slightly increased"}, {"measurement": "serum AST and ALT activity elevated by ConA (FIG. 4A, B)", "setting": "[3]; i.p. twice, 1 hr before and 4 h after Con A, blood at 24 h", "value": "suppressed the elevated enzyme activities in a dose-dependent manner"}, {"measurement": "apoptotic lesions in liver", "setting": "[4]", "value": "reduced dose-dependently"}, {"measurement": "cellular histology of liver", "setting": "[4]", "value": "gradually recovered"}]}, {"compound": "Z-VAD-fmk", "values": [{"measurement": "caspase-3-like activity increased by TNFα/ActD (FIG. 15A)", "setting": "[5]", "value": "not different"}, {"measurement": "cell viability with delayed addition, comparison with compound 33MP-Na", "setting": "[6]", "value": "No different results"}]}, {"compound": "CC(C)[C@H](NC(=O)CCc1ccccc1)C1=NOC(Cc2ccccc2)(C(=O)N[C@@H](CC(=O)O)C(=O)COC(=O)c2c(Cl)cccc2Cl)C1", "note": "(mixture of isomers) [Compound 32]", "values": [{"measurement": "IC50", "setting": "[7]", "value": "0.1 to 10", "unit": "µM"}]}]}
